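Following 48 hours of exposure in 96-well plates, responses at five concentrations were used to interpolate endpoints linearly. The concentration for 50% growth inhibition is given as GI50.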 Active and inactive are the calls of the source. Rule as the data show it: active = GI50 up to about 1.1 µM and inactive = higher.
Key:
Test in all cases: NCI tumour cell line growth inhibition, 48 h
EKVX = system: EKVX
COLO 205 = system: COLO 205
NCI-H522 = system: NCI-H522
U-251 = system: U-251
OVCAR-4 = system: OVCAR-4
K562 = system: K562
RXF 393 = system: RXF 393
IGROV-1 = system: IGROV-1
NCI-H460 = system: NCI-H460
OVCAR-5 = system: OVCAR-5
A549 = system: A549
UACC-62 = system: UACC-62
SR = system: SR
HCT-15 = system: HCT-15
A498 = system: A498
Malme-3M = system: Malme-3M

SMILES	GI50 (EKVX)	GI50 (COLO 205)	GI50 (NCI-H522)	GI50 (U-251)	GI50 (OVCAR-4)	GI50 (K562)	GI50 (RXF 393)	GI50 (IGROV-1)	GI50 (NCI-H460)	GI50 (OVCAR-5)	GI50 (A549)	GI50 (UACC-62)	GI50 (SR)	GI50 (HCT-15)	GI50 (A498)	GI50 (Malme-3M)
CCCCCCCCCCCC(=O)C1=C(O)CC(O)CC1=O (configuration not stated)	> 100 µM (inactive)	> 100 µM (inactive)	> 100 µM (inactive)	91.8 µM (inactive)	> 100 µM (inactive)	42.2 µM (inactive)	> 100 µM (inactive)	> 100 µM (inactive)	> 100 µM (inactive)	68.7 µM (inactive)	59.4 µM (inactive)	95.1 µM (inactive)	> 100 µM (inactive)			
CCN(CC)CCCC(C)Nc1c(Sc2cnc3cc(Cl)ccc3c2NC(C)CCCN(CC)CC)cnc2cc(Cl)ccc12 (configuration not stated)		1.46 µM (inactive)	1.73 µM (inactive)	1.63 µM (inactive)	1.73 µM (inactive)	1.55 µM (inactive)	1.67 µM (inactive)	1.87 µM (inactive)	1.74 µM (inactive)	1.73 µM (inactive)	1.68 µM (inactive)	1.74 µM (inactive)		1.72 µM	1.85 µM (inactive)	2.13 µM (inactive)
Cc1ccc(S(=O)(=O)C(CC(=O)N2CCCC2)C(=O)c2ccccc2)cc1 (configuration not stated)		> 100 µM (inactive)	89.3 µM (inactive)	> 100 µM (inactive)	> 100 µM (inactive)	24.9 µM (inactive)	> 100 µM (inactive)	> 100 µM (inactive)	> 100 µM (inactive)	> 100 µM (inactive)	> 100 µM (inactive)	> 100 µM (inactive)	25.5 µM (inactive)			> 100 µM (inactive)
CC(=O)OC1(C#N)CC2OC1C1C2N1C(=O)OC(C)(C)C (configuration not stated)	> 100 µM (inactive)	> 100 µM (inactive)	> 100 µM (inactive)	> 100 µM (inactive)	> 100 µM (inactive)	> 100 µM (inactive)	> 100 µM (inactive)	> 100 µM (inactive)	> 100 µM (inactive)	> 100 µM (inactive)	> 100 µM (inactive)	> 100 µM (inactive)		> 100 µM	> 100 µM (inactive)	> 100 µM (inactive)
Nc1ncnc2sc(Nc3ccccc3)nc12		> 100 µM (inactive)	28 µM (inactive)	56.6 µM (inactive)	93.3 µM (inactive)	22.6 µM (inactive)		32.2 µM (inactive)	> 100 µM (inactive)	> 100 µM (inactive)	> 100 µM (inactive)	> 100 µM (inactive)	38 µM (inactive)	> 100 µM		> 100 µM (inactive)
COc1ccc2c3c1C(=O)CCCC3CO2 (configuration not stated)		> 100 µM (inactive)	> 100 µM (inactive)	> 100 µM (inactive)	> 100 µM (inactive)	> 100 µM (inactive)	> 100 µM (inactive)	> 100 µM (inactive)	> 100 µM (inactive)	> 100 µM (inactive)	> 100 µM (inactive)	> 100 µM (inactive)		> 100 µM	> 100 µM (inactive)	> 100 µM (inactive)
CC(SC(=O)Nc1ccc(/N=N/c2ccccc2)cc1)C(=O)O (configuration not stated)	> 100 µM (inactive)	> 100 µM (inactive)	68.4 µM (inactive)	> 100 µM (inactive)	> 100 µM (inactive)	> 100 µM (inactive)	73.5 µM (inactive)	24.3 µM (inactive)	> 100 µM (inactive)	> 100 µM (inactive)	56.4 µM (inactive)	28.8 µM (inactive)	49 µM (inactive)	> 100 µM	> 100 µM (inactive)	
CN(C)c1ccc(/C=c2/sc3nc(=O)c(-c4ccccc4NC(=O)C(F)(F)F)nn3c2=O)cc1	> 100 µM (inactive)	98.6 µM (inactive)	> 100 µM (inactive)	53.3 µM (inactive)	> 100 µM (inactive)	> 100 µM (inactive)	> 100 µM (inactive)	> 100 µM (inactive)	> 100 µM (inactive)	> 100 µM (inactive)	> 100 µM (inactive)	> 100 µM (inactive)	93.8 µM (inactive)			> 100 µM (inactive)
CC1CCC2CC(=O)OC([C@@H]3C(=O)O[C@@H](C4=CCCC4)C4C(C)CCC43)C12 (some centres not stated)	> 100 µM (inactive)	32.4 µM (inactive)	51.3 µM (inactive)	48.6 µM (inactive)	> 10 µM (inactive)	43.7 µM (inactive)	> 100 µM (inactive)	80.2 µM (inactive)	58.1 µM (inactive)		> 100 µM (inactive)	> 100 µM (inactive)	39 µM (inactive)	48.2 µM		> 100 µM (inactive)
Cc1c2cc[n+](C)cc2c(C)c2c1[nH]c1ccc(OCC(F)(F)F)cc12	15 µM (inactive)	1.46 µM (inactive)	1.63 µM (inactive)	0.256 µM (active)	2.45 µM (inactive)	2.65 µM (inactive)		2.27 µM (inactive)	1.85 µM (inactive)		1.53 µM (inactive)	6.82 µM (inactive)	2.67 µM (inactive)			2.02 µM (inactive)

Reference: ChEMBL document CHEMBL1201862, “PubChem BioAssay data set” (2004)
